# Literature values in patent publication US20040266755A1, “Prodrugs of 1-(1-hydroxy-5-isoquinolinesulfonyl) homopiperazine” (Schering Aktiengesellschaft, priority 2003, published 2004).
# Test system: Rho-kinase
# Conditions: compared with fasudil; Shimokawa et al. (1999) Cardiovas. Res. 43:1138-1141
structure (smiles),measurement,value
"O=S(=O)(c1cccc2c(O)nccc12)N1CCCNCC1 [Hydroxyfasudil, 1-(1-hydroxy-5-isoquinolinesulfonyl) homopiperazine]",specificity of inhibitory effect on Rho-kinase,more specific inhibitory effect on Rho-kinase than fasudil
